The numbers were not newly measured in paper PMC4546328, “Effects of Inhibiting Dipeptidyl Peptidase-4 (DPP4) in Cows with Subclinical Ketosis” (PLoS ONE, 2015), which cites them from elsewhere.

The structures appear in SMILES notation.

Details of the data set: method as in earlier work. The conditions noted are these: prescribing information; primarily small increase of neutrophil granulocytes counts.

Take `N[C@@H](CC(=O)N1CCn2c(nnc2C(F)(F)F)C1)Cc1cc(F)c(F)cc1F` [sitagliptin]: the “effect on WBC” value is recorded as “slight increase in WBC”.
